The target of the assay is T1, human GPR119 (Homo sapiens, UniProt Q8TDV5).
T1 construct: expressed in transfected cells
T1 sequence (Q8TDV5 1-335): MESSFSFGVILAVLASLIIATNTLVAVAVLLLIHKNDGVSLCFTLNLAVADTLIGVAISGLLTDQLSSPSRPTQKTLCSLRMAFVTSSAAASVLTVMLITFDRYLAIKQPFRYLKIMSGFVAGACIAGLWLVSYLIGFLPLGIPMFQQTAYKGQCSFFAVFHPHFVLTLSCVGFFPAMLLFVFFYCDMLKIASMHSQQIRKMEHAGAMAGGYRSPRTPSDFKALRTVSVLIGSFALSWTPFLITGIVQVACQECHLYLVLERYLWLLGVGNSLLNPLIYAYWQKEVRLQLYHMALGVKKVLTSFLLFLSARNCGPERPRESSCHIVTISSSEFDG
Put plainly: Functional cellular assay measuring GPR119-mediated cAMP release (HTRF) in HEK-293 cells stably expressing recombinant human GPR119. In kind it is cell-based. Conditions: cAMP response, cell line expressing human GPR119, 30 minutes at room temperature. How it is done:
Functional Cellular Assays Measuring GPR119-Mediated cAMP Release
Compounds of the invention, which are agonists of GPR119, were characterized by functional assays measuring the cAMP response of HEK-293 cell lines stably expressing recombinant GPR119 from man, mouse or rat, or by using a hamster cell line HIT-T15 expressing GPR119 endogenously. The cAMP content was determined using a kit based on homogenous time-resolved fluorescence (HTRF) from Cisbio Corp. (cat. no. 62AM4PEC). For preparation, cells were split into T175 culture flasks and grown to near confluency in medium (DMEM/10% FCS for HEK-293 cells, and F-12K medium/10% horse serum/2.5% FCS for HIT-T15 cells, respectively). Medium was then removed and cells washed with PBS lacking calcium and magnesium ions, followed by proteinase treatment with accutase (Sigma-Aldrich, cat. no. A6964). Detached cells were washed and resuspended in assay buffer (1×HBSS; 20 mM HEPES, 0.1% BSA, 2 mM IBMX) and cellular density determined. They were then diluted to 400000 cells/mL and 25 μL-aliquots dispensed to the wells of 96-well plates. For measurement, 25 μL of test compound in assay buffer was added and incubated for 30 minutes at room temperature. After addition of HTRF reagents diluted in lysis buffer, the plates were incubated for 1 hour, followed by measuring the fluorescence ratio at 665 vs. 620 nm. Potency of the agonists was quantified by determining the concentrations that caused 50% of the maximal response/activation (EC50). See Table 7 for exemplary data obtained using the cell line expressing human GPR119.
Background: Time-resolved FRET reads energy transfer from a long-lived donor to a nearby acceptor.

In the case of `O=C1OCCC1N1Cc2ccc(N3CC[C@@H](Oc4ccc(OCC5CC5)nc4)C3=O)cc2C1=O` (stereo partly drawn) [Example 1-06, 6-[(3R)-3-[[6-(cyclopropylmethoxy)-3-pyridyl]oxy]-2-oxo-pyrrolidin-1-yl]-2-(2-oxotetrahydrofuran-3-yl)isoindolin-1-one], the 50% effective concentration (EC50) was found to be 151 nM.

Regarding `CN(C)C(=O)CN1Cc2ccc(N3CC[C@@H](Oc4ccc(C(=O)c5ccc(F)cc5)nc4)C3=O)cc2C1=O` [Example 2-61, 2-[6-[(3R)-3-[[6-(4-fluorobenzoyl)-3-pyridyl]oxy]-2-oxo-pyrrolidin-1-yl]-1-oxo-isoindolin-2-yl]-N,N-dimethyl-acetamide], the EC50 came out at 106 nM.

With `O=C(CN1Cc2ccc(N3CC[C@@H](Oc4ccc(Oc5ccc(F)cc5)nc4)C3=O)cc2C1=O)N1CC(O)C1` [Example 4-10, 6-[(3R)-3-[[6-(4-fluorophenoxy)-3-pyridyl]oxy]-2-oxo-pyrrolidin-1-yl]-2-[2-(3-hydroxyazetidin-1-yl)-2-oxo-ethyl]isoindolin-1-one], the EC50 was 208 nM.

As for `CN(C)C(=O)CN1Cc2ncc(N3CC[C@@H](Oc4ccc(C(=O)CC5CC5)cc4)C3=O)cc2C1=O` [Example 1-16, 2-[3-[(3R)-3-[4-(2-cyclopropylacetyl)phenoxy]-2-oxo-pyrrolidin-1-yl]-5-oxo-7H-pyrrolo[3,4-b]pyridin-6-yl]-N,N-dimethyl-acetamide], the EC50 turned out to be 360 nM.

On to `CN(C)C(=O)CN1Cc2ccc(N3CC[C@@H](Oc4ccc(OC(F)(F)F)c(Cl)c4)C3=O)cc2C1=O` [Example 2-41, 2-[6-[(3R)-3-[3-chloro-4-(trifluoromethoxy)phenoxy]-2-oxo-pyrrolidin-1-yl]-1-oxo-isoindolin-2-yl]-N,N-dimethyl-acetamide], for which the EC50 came to 470 nM.

In the case of `O=C(CN1Cc2ccc(N3CC[C@@H](Oc4ccc(OCC5CC5)nc4)C3=O)cc2C1=O)NCc1nnn[nH]1` [Example 4-30, 2-[6-[(3R)-3-[[6-(cyclopropylmethoxy)-3-pyridyl]oxy]-2-oxo-pyrrolidin-1-yl]-1-oxo-isoindolin-2-yl]-N-(1H-tetrazol-5-ylmethyl)acetamide], the EC50 is 749 nM.

With `C[S+]([O-])CN1Cc2ncc(N3CC[C@@H](Oc4ccc(Oc5ccc(F)cc5)nc4)C3=O)cc2C1=O` (stereo partly drawn) [Example 1-55, 3-[(3R)-3-[[6-(4-fluorophenoxy)-3-pyridyl]oxy]-2-oxo-pyrrolidin-1-yl]-6-(methylsulfinylmethyl)-7H-pyrrolo[3,4-b]pyridin-5-one], the 50% effective concentration (EC50) turned out to be 106 nM.

For `NC(=O)CN1Cc2ccc(N3CC[C@@H](Oc4ccc(OCC5CC5)nc4)C3=O)cc2C1=O` [Example 4-07, 2-[6-[(3R)-3-[[6-(cyclopropylmethoxy)-3-pyridyl]oxy]-2-oxo-pyrrolidin-1-yl]-1-oxo-isoindolin-2-yl]acetamide], the concentration for a half-maximal effect (EC50) came out at 163 nM.

On to `CN(C)C(=O)C1NC(=O)c2cc(N3CC[C@@H](Oc4ccc(OCC5CC5)nc4)C3=O)ccc2N1C` (single isomer, unassigned) [Example 1-42], for which the EC50 was determined as 366 nM.

With `CN(C)C(=O)CN1Cc2ccc(N3CC[C@@H](Oc4ccc(SC5CC5)nc4)C3=O)cc2C1=O` [Example 2-20, 2-[6-[(3R)-3-[(6-cyclopropylsulfanyl-3-pyridyl)oxy]-2-oxo-pyrrolidin-1-yl]-1-oxo-isoindolin-2-yl]-N,N-dimethyl-acetamide], the concentration giving a half-maximal response (EC50) came to 233 nM.

On to `O=C(CN1Cc2ccc(N3CC[C@@H](Oc4ccc(OCC(F)(F)F)nc4)C3=O)cc2C1=O)N1CCC1` [Example 4-42, 2-[2-(azetidin-1-yl)-2-oxo-ethyl]-6-[(3R)-2-oxo-3-[[6-(2,2,2-trifluoroethoxy)-3-pyridyl]oxy]pyrrolidin-1-yl]isoindolin-1-one], for which the EC50 was 39 nM.

Take `CN(C)C(=O)CN1Cc2ccc(N3CC[C@@H](Oc4ccc(Oc5ccc(F)cc5)cc4)C3=O)cc2C1=O` [Example 2-16, 2-[6-[(3R)-3-[4-(4-fluorophenoxy)phenoxy]-2-oxo-pyrrolidin-1-yl]-1-oxo-isoindolin-2-yl]-N,N-dimethyl-acetamide]: the EC50 stood at 47 nM.

Turning to `O=C(CN1Cc2ccc(N3CC[C@@H](Oc4ccc(OCC5CC5)nc4)C3=O)cc2C1=O)N1CC(O)C1` [Example 4-04, 6-[(3R)-3-[[6-(cyclopropylmethoxy)-3-pyridyl]oxy]-2-oxo-pyrrolidin-1-yl]-2-[2-(3-hydroxyazetidin-1-yl)-2-oxo-ethyl]isoindolin-1-one], the concentration giving a half-maximal response (EC50) is 197 nM.

Turning to `CCOc1ccc(O[C@@H]2CCN(c3cc(F)c4c(c3)C(=O)N(CC(=O)OC)C4)C2=O)cn1` [Example 1-31, methyl 2-[6-[(3R)-3-[(6-ethoxy-3-pyridyl)oxy]-2-oxo-pyrrolidin-1-yl]-4-fluoro-1-oxo-isoindolin-2-yl]acetate], the concentration giving a half-maximal response (EC50) was determined as 65 nM.

`CCN(CC)C(=O)CN1Cc2ccc(N3CC[C@@H](Oc4ccc(OCC(F)(F)F)nc4)C3=O)cc2C1=O` [Example 4-41, N,N-diethyl-2-[1-oxo-6-[(3R)-2-oxo-3-[[6-(2,2,2-trifluoroethoxy)-3-pyridyl]oxy]pyrrolidin-1-yl]isoindolin-2-yl]acetamide]: the half-maximal effective concentration (EC50) amounted to 40 nM.

Consider `CN(C)C(=O)CN1Cc2ccc(N3CC[C@@H](Oc4ccc(N5CCCC5)cc4)C3=O)cc2C1=O` [Example 2-46, N,N-dimethyl-2-[1-oxo-6-[(3R)-2-oxo-3-(4-pyrrolidin-1-ylphenoxy)pyrrolidin-1-yl]isoindolin-2-yl]acetamide], for which the 50% effective concentration (EC50) was found to be 6370 nM.

Consider `CCCC(=O)c1ccc(O[C@@H]2CCN(c3ccc4c(c3)C(=O)N(CC(=O)N(C)C)C4)C2=O)cc1` [Example 2-13, 2-[6-[(3R)-3-(4-butanoylphenoxy)-2-oxo-pyrrolidin-1-yl]-1-oxo-isoindolin-2-yl]-N,N-dimethyl-acetamide], for which the concentration giving a half-maximal response (EC50) stood at 75 nM.

For the compound `COC(=O)CC1c2ccc(N3CC[C@@H](Oc4ccc(OCC5CC5)nc4)C3=O)cc2C(=O)N1C` (stereo partly drawn) [Example 1-05, methyl 2-[5-[(3R)-3-[[6-(cyclopropylmethoxy)-3-pyridyl]oxy]-2-oxo-pyrrolidin-1-yl]-2-methyl-3-oxo-isoindolin-1-yl]acetate], the 50% effective concentration (EC50) was 313 nM.

For the compound `CCOc1ccc(O[C@@H]2CCN(c3cc(F)c4c(c3)C(=O)N(CC(=O)NC)C4)C2=O)cn1` [Example 4-13, 2-[6-[(3R)-3-[(6-ethoxy-3-pyridyl)oxy]-2-oxo-pyrrolidin-1-yl]-4-fluoro-1-oxo-isoindolin-2-yl]-N-methyl-acetamide], the EC50 is 326 nM.

As for `CN(C)C(=O)CN1Cc2ccc(N3CC[C@@H](Oc4ccc(Cl)nc4)C3=O)cc2C1=O` [Example 2-10, 2-[6-[(3R)-3-[(6-chloro-3-pyridyl)oxy]-2-oxo-pyrrolidin-1-yl]-1-oxo-isoindolin-2-yl]-N,N-dimethyl-acetamide], the EC50 worked out at 2070 nM.

Consider `C=CCOc1ccc(O[C@@H]2CCN(c3cc(F)c4c(c3)C(=O)N(CC(=O)N(C)C)C4)C2=O)cn1` [Example 6-03, 2-[6-[(3R)-3-[(6-allyloxy-3-pyridyl)oxy]-2-oxo-pyrrolidin-1-yl]-4-fluoro-1-oxo-isoindolin-2-yl]-N,N-dimethyl-acetamide], for which the EC50 was 64 nM.

Regarding `CS(=O)(=O)CN1Cc2ncc(N3CC[C@@H](Oc4ccc(OCC(F)(F)F)nc4)C3=O)cc2C1=O` [Example 1-67, 6-(methylsulfonylmethyl)-3-[(3R)-2-oxo-3-[[6-(2,2,2-trifluoroethoxy)-3-pyridyl]oxy]pyrrolidin-1-yl]-7H-pyrrolo[3,4-b]pyridin-5-one], the concentration for a half-maximal effect (EC50) was 81 nM.

Take `COCCNC(=O)CN1Cc2c(F)cc(N3CC[C@@H](Oc4ccc(OCCC5CC5)nc4)C3=O)cc2C1=O` [Example 4-20, 2-[6-[(3R)-3-[[6-(2-cyclopropylethoxy)-3-pyridyl]oxy]-2-oxo-pyrrolidin-1-yl]-4-fluoro-1-oxo-isoindolin-2-yl]-N-(2-methoxyethyl)acetamide]: the concentration for a half-maximal effect (EC50) was 62 nM.

On to `C[S@+]([O-])CN1Cc2ncc(N3CC[C@@H](Oc4ccc(OCC(F)(F)F)nc4)C3=O)cc2C1=O` [Example 1-68, 6-((S)-methanesulfinylmethyl)-3-{(R)-2-oxo-3-[6-(2,2,2-trifluoro-ethoxy)-pyridin-3-yloxy]-pyrrolidin-1-yl}-6,7-dihydro-pyrrolo[3,4-b]pyridin-5-one], for which the concentration giving a half-maximal response (EC50) amounted to 143 nM.

Consider `CN(C)C(=O)CN1Cc2ccc(N3CC[C@@H](Oc4ccc(C(=O)CCC5CC5)nc4)C3=O)cc2C1=O` [Example 2-57, 2-[6-[(3R)-3-[[6-(3-cyclopropylpropanoyl)-3-pyridyl]oxy]-2-oxo-pyrrolidin-1-yl]-1-oxo-isoindolin-2-yl]-N,N-dimethyl-acetamide], for which the EC50 was 50 nM.

For orientation: EC50 means the concentration that produces a half-maximal response.

(Values after patent US9908868B2, “Isoindolinone compounds as GPR119 modulators for the treatment of diabetes, obesity, dyslipidemia and related disorders” (SANOFI, priority 2014, dated 2018).)
